Laboratory results as given in patent US7846959B2, “Raf modulators and methods of use” (Exelixis, Inc., priority 2004, dated 2010).
Like-named read-outs stand apart in the source and are kept apart here.

Assays:
c-Raf = c-Raf (Homo sapiens, UniProt P04049); assay: Luciferase-coupled chemiluminescence kinase assay (ATP consumption), c-Raf; format: biochemical
Outline: (§1)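 ATP depletion, limited to 25-60%, read by luciferase-luciferin chemiluminescence gives IC50 values. Before the 3 hr ambient-temperature kinase reaction with ATP, compound and […] enzyme were preincubated 30 minutes at room temperature in Tris pH 7.5 buffer with MgCl2, TX-100 and DTT.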

B-Raf = B-Raf (Homo sapiens, UniProt P15056); assay: Luciferase-coupled chemiluminescence kinase assay (ATP consumption), B-Raf; format: biochemical
Chain of B-Raf (P15056 whole entry): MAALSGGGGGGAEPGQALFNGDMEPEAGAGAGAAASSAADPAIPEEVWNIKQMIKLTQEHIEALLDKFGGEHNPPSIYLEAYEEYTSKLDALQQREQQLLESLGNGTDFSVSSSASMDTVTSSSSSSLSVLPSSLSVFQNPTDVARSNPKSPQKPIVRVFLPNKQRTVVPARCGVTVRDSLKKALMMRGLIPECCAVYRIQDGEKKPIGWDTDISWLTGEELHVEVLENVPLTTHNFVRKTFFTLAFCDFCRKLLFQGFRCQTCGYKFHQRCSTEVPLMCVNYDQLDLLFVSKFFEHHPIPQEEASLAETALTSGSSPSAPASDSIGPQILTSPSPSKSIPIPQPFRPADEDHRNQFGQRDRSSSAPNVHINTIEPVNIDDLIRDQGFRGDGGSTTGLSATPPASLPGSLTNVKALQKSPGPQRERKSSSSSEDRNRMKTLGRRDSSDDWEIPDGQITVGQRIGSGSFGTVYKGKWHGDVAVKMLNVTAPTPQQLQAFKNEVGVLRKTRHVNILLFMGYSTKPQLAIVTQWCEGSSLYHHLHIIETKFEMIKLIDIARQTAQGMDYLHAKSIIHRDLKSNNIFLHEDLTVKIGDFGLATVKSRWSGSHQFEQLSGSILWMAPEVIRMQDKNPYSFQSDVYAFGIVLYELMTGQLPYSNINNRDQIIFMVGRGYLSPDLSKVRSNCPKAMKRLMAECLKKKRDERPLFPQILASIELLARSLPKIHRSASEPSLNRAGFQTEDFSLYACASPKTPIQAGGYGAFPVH
Outline: as §1

[1] = read-out: cRaf-1 (inhibition indicated as IC50)
[2] = read-out: bRaf (inhibition indicated as IC50)

Chain of c-Raf (P04049 whole entry): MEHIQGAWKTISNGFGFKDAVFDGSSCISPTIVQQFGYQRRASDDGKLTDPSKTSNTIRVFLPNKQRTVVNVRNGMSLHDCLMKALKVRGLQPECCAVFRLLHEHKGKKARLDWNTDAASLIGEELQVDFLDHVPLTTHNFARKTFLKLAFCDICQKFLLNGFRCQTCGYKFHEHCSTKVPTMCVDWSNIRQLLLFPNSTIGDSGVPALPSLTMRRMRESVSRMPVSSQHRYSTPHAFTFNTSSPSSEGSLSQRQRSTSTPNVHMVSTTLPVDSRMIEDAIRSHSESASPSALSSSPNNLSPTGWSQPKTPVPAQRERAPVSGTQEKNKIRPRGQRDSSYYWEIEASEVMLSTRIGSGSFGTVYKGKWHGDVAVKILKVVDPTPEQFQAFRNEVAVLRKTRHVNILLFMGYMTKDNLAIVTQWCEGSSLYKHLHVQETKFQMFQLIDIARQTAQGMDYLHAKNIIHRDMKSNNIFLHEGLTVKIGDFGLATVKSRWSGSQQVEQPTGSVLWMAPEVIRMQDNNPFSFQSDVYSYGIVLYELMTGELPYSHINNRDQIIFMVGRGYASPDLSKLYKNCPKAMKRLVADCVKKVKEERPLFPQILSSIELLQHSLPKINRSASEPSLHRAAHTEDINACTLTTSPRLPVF

| IC50 (c-Raf; read-out: cRaf-1 IC50) [nM] | IC50 (B-Raf; read-out: bRaf IC50) [nM] | IC50 (c-Raf; [1]) [nM] | IC50 (B-Raf; [2]) [nM] | SMILES |
| --- | --- | --- | --- | --- |
| < 100 | < 100 | – | – | COC(=O)Nc1nc2cc(C3(O)c4ccccc4C(=O)N3C(C)c3ccc(Br)s3)ccc2[nH]1 (stereo not drawn) [Entry 249, methyl (5-{2-[1-(5-bromo-2-thienyl)ethyl]-1-hydroxy-3-oxo-2,3-dihydro-1H-isoindol-1-yl}-1H-benzimidazol-2-yl)carbamate] |
| < 100 | < 100 | – | – | COC(=O)Nc1nc2cc(C3(O)c4ccccc4C(=O)N3c3cc(Cl)c(Cl)cc3F)ccc2[nH]1 (stereo not drawn) [Entry 250, methyl {5-[2-(4,5-dichloro-2-fluorophenyl)-1-hydroxy-3-oxo-2,3-dihydro-1H-isoindol-1-yl]-1H-benzimidazol-2-yl}carbamate] |
| < 100 | < 100 | – | – | COC(=O)Nc1nc2cc(C3(O)c4ccccc4C(=O)N3c3cccc(Br)c3F)ccc2[nH]1 (stereo not drawn) [Entry 251, methyl {5-[2-(3-bromo-2-fluorophenyl)-1-hydroxy-3-oxo-2,3-dihydro-1H-isoindol-1-yl]-1H-benzimidazol-2-yl}carbamate] |
| < 100 | < 100 | – | – | COC(=O)Nc1nc2cc(C3(O)c4ccccc4C(=O)N3c3ccc(F)c(Cl)c3F)ccc2[nH]1 (stereo not drawn) [Entry 252, methyl {5-[2-(3-chloro-2,4-difluorophenyl)-1-hydroxy-3-oxo-2,3-dihydro-1H-isoindol-1-yl]-1H-benzimidazol-2-yl}carbamate] |
| < 100 | < 100 | – | – | C#CCCC(=O)Nc1nc2ccc(C3(O)c4ccccc4C(=O)N3Cc3ccccc3)cc2[nH]1 (stereo not drawn) [Entry 253, N-{6-[1-hydroxy-3-oxo-2-(phenylmethyl)-2,3-dihydro-1H-isoindol-1-yl]-1H-benzimidazol-2-yl}pent-4-ynamide] |
| < 100 | < 100 | – | – | COC(=O)Nc1nc2ccc(C3(C)c4ccccc4C(=O)N3c3cccc(C(F)(F)F)c3)cc2[nH]1 (stereo not drawn) [Entry 254, methyl (6-{1-methyl-3-oxo-2-[3-(trifluoromethyl)phenyl]-2,3-dihydro-1H-isoindol-1-yl}-1H-benzimidazol-2-yl)carbamate] |
| < 100 | < 100 | – | – | COC(=O)Nc1nc2cc(C3(O)c4ccccc4C(=O)N3c3cccc(N(C)C)c3)ccc2[nH]1 (stereo not drawn) [Entry 258, methyl (5-{2-[3-(dimethylamino)phenyl]-1-hydroxy-3-oxo-2,3-dihydro-1H-isoindol-1-yl}-1H-benzimidazol-2-yl)carbamate] |
| < 100 | < 100 | – | – | O=C(Nc1nc2ccc(C3(O)c4ccccc4C(=O)N3Cc3ccccc3)cc2[nH]1)C1CC1(F)F (stereo not drawn) [Entry 259, 2,2-difluoro-N-{6-[1-hydroxy-3-oxo-2-(phenylmethyl)-2,3-dihydro-1H-isoindol-1-yl]-1H-benzimidazol-2-yl}cyclopropanecarboxamide] |
| < 100 | < 100 | – | – | COC(=O)Nc1nc2cc(C3(O)c4ccccc4C(=O)N3c3cccc(N)c3)ccc2[nH]1 (stereo not drawn) [Entry 261, methyl {5-[2-(3-aminophenyl)-1-hydroxy-3-oxo-2,3-dihydro-1H-isoindol-1-yl]-1H-benzimidazol-2-yl}carbamate] |
| < 100 | < 100 | – | – | O=C(CCCN1CCCCC1)Nc1nc2cc(C3(O)c4ccccc4C(=O)N3Cc3ccccc3)ccc2[nH]1 (stereo not drawn) [Entry 263, N-{5-[1-hydroxy-3-oxo-2-(phenylmethyl)-2,3-dihydro-1H-isoindol-1-yl]-1H-benzimidazol-2-yl}-4-piperidin-1-ylbutanamide] |
| 1000 to 10000 | 1000 to 10000 | – | – | COC(=O)Nc1nc2ccc(C3(O)c4cc(Cl)c(Cl)cc4C(=O)N3c3cccc(Br)c3)cc2[nH]1 (stereo not drawn) [Entry 266, methyl {6-[2-(3-bromophenyl)-5,6-dichloro-1-hydroxy-3-oxo-2,3-dihydro-1H-isoindol-1-yl]-1H-benzimidazol-2-yl}carbamate] |
| – | – | < 100 | < 100 | O=C(CCN1CCCCC1)Nc1nc2cc(C3(O)c4ccccc4C(=O)N3Cc3ccccc3)ccc2[nH]1 (stereo not drawn) [Entry 274, N-{5-[1-hydroxy-3-oxo-2-(phenylmethyl)-2,3-dihydro-1H-isoindol-1-yl]-1H-benzimidazol-2-yl}-3-piperidin-1-ylpropanamide] |

More lines, now with the values behind:

| SMILES | IC50 (c-Raf; read-out: cRaf-1 IC50) [nM] | IC50 (B-Raf; read-out: bRaf IC50) [nM] | IC50 (c-Raf; [1]) [nM] | IC50 (B-Raf; [2]) [nM] |
| --- | --- | --- | --- | --- |
| COC(=O)Nc1nc2cc(C3(O)c4ccccc4C(=O)N3c3cccc(OC(F)(F)C(F)F)c3)ccc2[nH]1 (stereo not drawn) [Entry 255, methyl [5-(1-hydroxy-3-oxo-2-{3-[(1,1,2,2-tetrafluoroethyl)oxy]phenyl}-2,3-dihydro-1H-isoindol-1-yl)-1H-benzimidazol-2-yl]carbamate] | 1000 to 10000 | 1000 to 10000 | – | – |
| COC(=O)Nc1nc2cc(C3(O)c4ccccc4C(=O)N3c3cccc(C4CCNCC4)c3)ccc2[nH]1 (stereo not drawn) [Entry 256, methyl {5-[1-hydroxy-3-oxo-2-(3-piperidin-4-ylphenyl)-2,3-dihydro-1H-isoindol-1-yl]-1H-benzimidazol-2-yl}carbamate] | 100 to 1000 | 100 to 1000 | – | – |
| C=Cc1cccc(N2C(=O)c3ccccc3C2(O)c2ccc3[nH]c(NC(=O)OC)nc3c2)c1 (stereo not drawn) [Entry 257, methyl {5-[2-(3-ethenylphenyl)-1-hydroxy-3-oxo-2,3-dihydro-1H-isoindol-1-yl]-1H-benzimidazol-2-yl}carbamate] | < 100 | < 100 | – | – |
| CCNC(=O)Nc1nc2ccc(C3(O)c4ccccc4C(=O)N3c3ccc(F)cc3)cc2[nH]1 (stereo not drawn) [Entry 260, N-ethyl-N′-{6-[2-(4-fluorophenyl)-1-hydroxy-3-oxo-2,3-dihydro-1H-isoindol-1-yl]-1H-benzimidazol-2-yl}urea] | < 100 | < 100 | – | – |
| O=C(CCCOCc1ccccc1)Nc1nc2cc(C3(O)c4ccccc4C(=O)N3Cc3ccccc3)ccc2[nH]1 (stereo not drawn) [Entry 262, N-{5-[1-hydroxy-3-oxo-2-(phenylmethyl)-2,3-dihydro-1H-isoindol-1-yl]-1H-benzimidazol-2-yl}-4-[(phenylmethyl)oxy]butanamide] | < 100 | < 100 | – | – |
| CN1CCN(CCCC(=O)Nc2nc3cc(C4(O)c5ccccc5C(=O)N4Cc4ccccc4)ccc3[nH]2)CC1 (stereo not drawn) [Entry 264, N-{5-[1-hydroxy-3-oxo-2-(phenylmethyl)-2,3-dihydro-1H-isoindol-1-yl]-1H-benzimidazol-2-yl}-4-(4-methylpiperazin-1-yl)butanamide] | < 100 | < 100 | – | – |
| CCCC(=O)Nc1nc2ccc(C3(O)c4ccccc4C(=O)N3c3ccc(F)cc3)cc2[nH]1 (stereo not drawn) [Entry 265, N-{6-[2-(4-fluorophenyl)-1-hydroxy-3-oxo-2,3-dihydro-1H-isoindol-1-yl]-1H-benzimidazol-2-yl}butanamide] | < 100 | < 100 | – | – |
| COC(=O)Nc1nc2cc(C3(O)c4ccccc4C(=O)N3c3cccc(N(C)c4ccccc4)c3)ccc2[nH]1 (stereo not drawn) [Entry 267, methyl [5-(1-hydroxy-2-{3-[methyl(phenyl)amino]phenyl}-3-oxo-2,3-dihydro-1H-isoindol-1-yl)-1H-benzimidazol-2-yl]carbamate] | < 100 | < 100 | – | – |
| COC(=O)Nc1nc2cc(C3(O)c4ccccc4C(=O)N3S(=O)(=O)c3ccccc3)ccc2[nH]1 (stereo not drawn) [Entry 268, methyl {5-[1-hydroxy-3-oxo-2-(phenylsulfonyl)-2,3-dihydro-1H-isoindol-1-yl]-1H-benzimidazol-2-yl}carbamate] | – | – | 1000 to 10000 | 1000 to 10000 |
| COC(=O)Nc1nc2cc(C(=O)c3ccccc3NC(=O)Nc3ccccc3)ccc2[nH]1 [Entry 269, methyl {5-[(2-{[(phenylamino)carbonyl]amino}phenyl)carbonyl]-1H-benzimidazol-2-yl}carbamate] | – | – | 100 to 1000 | 100 to 1000 |
| COC(=O)Nc1nc2cc(C(=O)c3ccccc3NC(=O)OCc3ccccc3)ccc2[nH]1 [Entry 270, methyl (5-{[2-({[(phenylmethyl)oxy]carbonyl}amino)pheny]carbonyl}-1H-benzimidazol-2-yl)carbamate] | – | – | 1000 to 10000 | 1000 to 10000 |
| COC(=O)Nc1nc2cc(C(=O)c3ccccc3C(=O)NNc3ccccc3)ccc2[nH]1 [Entry 271, methyl [5-({2-[(2-phenylhydrazino)carbonyl]phenyl}carbonyl)-1H-benzimidazol-2-yl]carbamate] | – | – | 100 to 1000 | 100 to 1000 |
| COC(=O)Nc1nc2cc(C(=O)c3ccccc3C(=O)NOc3ccccc3)ccc2[nH]1 [Entry 272, methyl {5-[(2-{[(phenyloxy)amino]carbonyl}phenyl)carbonyl]-1H-benzimidazol-2-yl}carbamate] | – | – | < 100 | < 100 |
| CC#CCOC(=O)Nc1nc2cc(C3(O)c4ccccc4C(=O)N3c3ccc(F)cc3)ccc2[nH]1 (stereo not drawn) [Entry 273, but-2-yn-1-yl {5-[2-(4-fluorophenyl)-1-hydroxy-3-oxo-2,3-dihydro-1H-isoindol-1-yl]-1H-benzimidazol-2-yl}carbamate] | – | – | < 100 | < 100 |
| CCC(=O)Nc1nc2ccc(C3(O)c4ccccc4C(=O)N3c3ccc(F)cc3)cc2[nH]1 (stereo not drawn) [Entry 275, N-{6-[2-(4-fluorophenyl)-1-hydroxy-3-oxo-2,3-dihydro-1H-isoindol-1-yl]-1H-benzimidazol-2-yl}propanamide] | – | – | < 100 | < 100 |
| C#CCCC(=O)Nc1nc2ccc(C(=O)c3ccccc3C(=O)Nc3ccc(F)cc3)cc2[nH]1 [Entry 276, N-(4-fluorophenyl)-2-{[2-(pent-4-ynoylamino)-1H-benzimidazol-6-yl]carbonyl}benzamide] | – | – | < 100 | < 100 |
| CCN(CC)CCCC(=O)Nc1nc2cc(C3(O)c4ccccc4C(=O)N3Cc3ccccc3)ccc2[nH]1 (stereo not drawn) [Entry 277, 4-(diethylamino)-N-{5-[1-hydroxy-3-oxo-2-(phenylmethyl)-2,3-dihydro-1H-isoindol-1-yl]-1H-benzimidazol-2-yl}butanamide] | – | – | < 100 | < 100 |
| O=C(CCCN1CCCC1)Nc1nc2cc(C3(O)c4ccccc4C(=O)N3Cc3ccccc3)ccc2[nH]1 (stereo not drawn) [Entry 278, N-{5-[1-hydroxy-3-oxo-2-(phenylmethyl)-2,3-dihydro-1H-isoindol-1-yl]-1H-benzimidazol-2-yl}-4-pyrrolidin-1-ylbutanamide] | – | – | < 100 | < 100 |
